From US6511978B1, “Pyrrole derivatives useful for farnesyl transferase inhibitors and their preparations” (LG Life Sciences, Ltd., priority 1999, dated 2003)

Assays:
Ras farnesyl transferase [1] = target: T1, Ras farnesyl transferase (Homo sapiens, UniProt P49354+P49356); assay: Ras farnesyl transferase enzyme inhibition, K-Ras substrate (H-Ras fused with polybasic lysine domain of K-Ras); assay type: biochemical; details: K-Ras substrate (fused protein of H-Ras with polybasic lysine domain of K-Ras); recombinant farnesyl transferase
T1 construct: made in house
Description: (§1) In the present experiment, the improved Pompliano's method (see: Pompliano et al., Biochemistry, 31, 3800, 1992) was applied. Specifically, Ras farnesyl transferase produced by genetic recombination techniques was used, and fused protein of H-Ras(H-Ras-CVLS) substituted with polybasic lysine domain at C-terminus of K-Ras (see: Korean Patent Appln. No. 97-14409) was used as a substrate after it had been purified according to the known method(see, Chung et al., Biochimica et Biophysica Acta, 1129, 278, 1992).
(§2) The enzyme reaction was performed in 50 μl of 50 mM Sodium HEPES buffer solution containing 25 mM of potassium chloride, 25 mM of magnesium chloride, 10 mM of DTT and 50 μM of zinc chloride. 1.5 μM of Ras substrate protein, 0.15 μM of tritium-farnesylpyrophosphate and 4.5 nM of farnesyl transferase were used. More specifically, in the initial step, farnesyl transferase was added to the above buffer solution, reaction was maintained for 30 minutes at 37° C. and then the reaction was stopped by adding 1 ml of ethanol solution containing 1M HCl. The formed precipitates were adsorbed to GF/B filter using Hopper harvestor(Hopper #FH 225V) for filter-binding, washed with ethanol, and then radioactivity of the dried filter was measured using LKB β counter. Enzyme titer was measured in the unsaturated state of substrate where the concentration of Ras substrate protein and farnesyl transferase have quantitative relationship. The compound according to the present invention dissolved in dimethyl sulfoxide(DMSO) was added to the reaction solution in an amount of less than 5% of the total reaction solution, and then the enzyme inhibitory activity thereof was measured. The enzyme inhibitory activity was represented by percentage of the amount of farnesyl incorporated into the Ras substrate protein in the presence of the test compound to that in the absence of the test compound. IC50 of the test compound was defined as the concentration at which 50% of the enzyme activity was inhibited. To evaluate the selective enzyme inhibitory activity of the compound according to the present invention, inhibitory activity on geranylgeranyl transferase was measured. Geranylgeranyl transferase was purified from bovine brain according to the modified Schaber's method(Schaber et al., J. Biol. Chem. 265, 14701, 1990), and substantially the same experimental procedure as that for farnesyl transferase was performed on geranylgeranyl pyrophosphate and Ras-CVIL substrate protein.

Ras farnesyl transferase [2] = target: T1, Ras farnesyl transferase; assay: Ras farnesyl transferase enzyme inhibition, H-Ras substrate; assay type: biochemical; details: H-Ras substrate protein; recombinant farnesyl transferase; 30 minutes at 37° C.
Description: as §1, §2

Ras farnesyl transferase [3] = target: T2, Ras farnesyl transferase (Rattus norvegicus, UniProt Q02293+Q04631); assay: In vivo (intracellular) Ras farnesylation inhibition in Rat2 cell line expressing C-Harvey-Ras; assay type: cell-based; details: Rat2 cells expressing C-Harvey-Ras; concentration inhibiting 50% of farnesyl binding; read-out: H-Ras CIC50
T2 construct: endogenous in cells; host or cells: Rat2 fibroblasts transformed with C-Harvey-Ras or with the H-Ras/K-Ras polybasic-domain fusion
Method: (§3) In the present experiment, Rat2 cell line which expresses C-Harvey-Ras protein having transforming activity and Rat2 cell line(Korean patent application No. 97-14409) which is transformed with fused protein of H-Ras substituted with polybasic lysine domain at C-terminus of K-Ras were used. The experiment was performed by the modified Declue's method(Declue. J. E. et al., Cancer Research, 51, 712, 1991) as follows.
(§4) 3×10^5 cells of transformed Rat2 fibroblast cell line were sprayed on 60 mm cell cultivation dish and cultivated for 48 hours in a cell incubator at 37° C. and after 50% or more of density was reached, it was treated with the test compounds. The compound according to the present invention dissolved in dimethylsulfoxide(DMSO) was used. 1% concentration of dimethylsulfoxide was used in both control and test groups. After 4 hours from the treatment with the compound, methionine labeled with 150 μCi of radioactive isotope [^35S] per 1 ml of medium was added and after cultivating for 20 hours, the cells were washed with physiological saline water. The cells were lysed using 1 ml of cold cell lysis buffer solution(50 mM of Sodium HEPES buffer solution containing 5 mM of magnesium chloride, 1 mM of DTT, 1% NP 40, 1 mM of EDTA, 1 mM of PMSF, 2 μM of leupeptin, 2 μM of pepstatin A and 2 μM of antipain) and the supernatant wherein the cells were lysed was obtained by high-velocity centrifugation of 12,000 g×5 minutes. The amount of radioisotope in the supernatant was measured and standardized to obtain a quantitative result in immunoprecipitation reaction and then, Y13-259, a monoclonal antiboby specifically binding to Ras protein(see: Furth, M. E. et al., J. Virol, 43, 294, 1982) was added and reacted for 15 hours at 4° C. Protein A(combined with goat anti-murine immunoglobulin antibody)-agarose suspension was added to the solution and reacted for 1 hour at 4° C. and then, to remove the unspecific binding product, immunoprecipitates were washed with a buffer solution (50 mM Tris chloride buffer solution containing 50 mM of sodium chloride, 0.5% of sodium dioxycholate, 0.5% of NP 40 and 0.1% of SDS). The precipitates were added to a buffer solution for electrophoresis and boiled and then, electrophoresis was performed using 13.5% of SDS polyacrylamide gel. After electrophoresis, the gel was fixed and dried. Then, the gel was exposed to X-ray film, developed and printed. From the result of the experiment, intensities of band of protein combined with or without farnesyl of Ras protein was measured, and the concentration of the test compound inhibiting 50% of farnesyl binding was defined as CIC50, an in vivo Ras farnesyl transferase inhibitory activity. IC50 means the data from Experimental 1 and CIC50 means the data from Experimental 2.

Ras farnesyl transferase [4] = target: T2, Ras farnesyl transferase; assay: In vivo (intracellular) Ras farnesylation inhibition in Rat2 cell line transformed with H-Ras fused with polybasic lysine domain of K-Ras; assay type: cell-based; details: Rat2 cells transformed with H-Ras/K-Ras polybasic domain fused protein; concentration inhibiting 50% of farnesyl binding; read-out: K-Ras CIC50
Method: as §3, §4

SMILES	IC50 (Ras farnesyl transferase [1]) [µM]	IC50 (Ras farnesyl transferase [2]) [µM]	IC50 (Ras farnesyl transferase [3]) [µM]	IC50 (Ras farnesyl transferase [4]) [µM]
Cc1ncn(CCCOCc2ccccc2Cl)c1Cn1cc(C(=O)N2CCN(C)CC2)c(-c2cccc3ccccc23)c1 [Example 31, 1-{1-[3-(2-chlorobenzyloxy)propyl]-4-methyl-1H-imidazol-5-ylmethyl}-3-(4-methylpiperazin-1-yl)carbonyl-4-(naphthalen-1-yl)-1H-pyrrole]	< 0.0021	< 0.0032	< 0.00625	< 10
Cc1ncc(Cn2cc(C(=O)N3CCN(C)CC3)c(-c3cccc4ccccc34)c2)n1CCc1ccccc1 [Example 35, 1-[1-(phenethyl)-2-methyl-1H-imidazol-5-ylmethyl]-3-(4-methylpiperazin-1-yl)carbonyl-4-(naphthalen-1-yl)-1H-pyrrole]	< 0.0059	< 0.0025	< 0.0025	> 10
O=[N+]([O-])c1cn(Cc2cncn2Cc2ccc3c(c2)OCO3)cc1-c1cccc2ccccc12 [Example 36, 1-[1-(3,4-methylenedioxybenzyl)-1H-imidazol-5-ylmethyl]-4-(naphthalen-1-yl)-3-nitro-1H-pyrrole]	< 0.0155	< 0.0055	> 0.1	> 20
O=[N+]([O-])c1cn(Cc2cncn2Cc2ccc(Br)cc2)cc1-c1cccc2ccccc12 [Example 38, 1-[1-(4-bromobenzyl)-1H-imidazol-5-ylmethyl]-4-(naphthalen-1-yl)-3-nitro-1H-pyrrole]	> 0.03	< 0.023	> 0.025	> 10
Cc1ccc(CCn2cncc2Cn2cc(-c3cccc4ccccc34)c([N+](=O)[O-])c2)cc1 [Example 40, 1-[1-(4-methylphenethyl)-1H-imidazol-5-ylmethyl]-4-(naphthalen-1-yl)-3-nitro-1H-pyrrole]	> 0.03	< 0.024	> 0.05	> 10
COc1cccc(CCn2cncc2Cn2cc(-c3cccc4ccccc34)c([N+](=O)[O-])c2)c1 [Example 45, 1-[1-(3-methoxyphenethyl)-1H-imidazol-5-ylmethyl]-4-(naphthalen-1-yl)-3-nitro-1H-pyrrole]	< 0.016	< 0.016	< 0.025	> 10
Cn1cncc1Cn1cc(-c2cccc3ccccc23)c([N+](=O)[O-])c1 [Example 48, 1-[1-(methyl)-1H-imidazol-5-ylmethyl]-4-(naphthalen-1-yl)-3-nitro-1H-pyrrole]	> 0.03	> 0.03	> 0.05	> 10

Next, values leading:

IC50 (Ras farnesyl transferase [1]) [µM]	IC50 (Ras farnesyl transferase [2]) [µM]	IC50 (Ras farnesyl transferase [3]) [µM]	IC50 (Ras farnesyl transferase [4]) [µM]	SMILES
< 0.015	< 0.006	< 0.00625	> 10	COCCN(C)C(=O)c1cn(Cc2c(C)ncn2CCCOCc2ccccc2Cl)cc1-c1cccc2ccccc12 [Example 32, 1-{1-[3-(2-chlorobenzyloxy)propyl]-4-methyl-1H-imidazol-5-ylmethyl}-3-[N-(2-methoxyethyl)-N-methyl]carbamoyl-4-(naphthalen-1-yl)-1H-pyrrole]
> 0.03	> 0.03	> 0.03	> 10	Cc1ncc(Cn2cc(C(=O)N3CCN(C)CC3)c(-c3cccc4ccccc34)c2)n1CCCOCc1ccccc1 [Example 33, 1-[1-(3-benzyloxypropyl)-2-methyl-1H-imidazol-5-ylmethyl]-3-(4-methylpiperazin-1-yl)carbonyl-4-(naphthalen-1-yl)-1H-pyrrole]
< 0.0095	< 0.0057	> 0.025	> 10	O=[N+]([O-])c1cn(Cc2cncn2Cc2ccc(Cl)cc2)cc1-c1cccc2ccccc12 [Example 37, 1-[1-(4-chlorobenzyl)-1H-imidazol-5-ylmethyl]-4-(naphthalen-1-yl)-3-nitro-1H-pyrrole]
< 0.0083	< 0.006	< 0.025	> 10	O=[N+]([O-])c1cn(Cc2cncn2CCc2ccccc2)cc1-c1cccc2ccccc12 [Example 39, 1-[1-(phenethyl)-1H-imidazol-5-ylmethyl]-4-(naphthalen-1-yl)-3-nitro-1H-pyrrole]
< 0.004	< 0.009	> 0.05	> 10	O=[N+]([O-])c1cn(Cc2cncn2CCc2ccc(Cl)cc2)cc1-c1cccc2ccccc12 [Example 41, 1-[1-(4-chlorophenethyl)-1H-imidazol-5-ylmethyl]-4-(naphthalen-1-yl)-3-nitro-1H-pyrrole]
< 0.0075	< 0.00415	> 0.05	> 10	O=[N+]([O-])c1cn(Cc2cncn2CCc2ccc(F)cc2)cc1-c1cccc2ccccc12 [Example 42, 1-[1-(4-fluorophenethyl)-1H-imidazol-5-ylmethyl]-4-(naphthalen-1-yl)-3-nitro-1H-pyrrole]
< 0.013	< 0.003	> 0.05	> 10	O=[N+]([O-])c1cn(Cc2cncn2CCc2cccc(Br)c2)cc1-c1cccc2ccccc12 [Example 43, 1-[1-(3-bromophenethyl)-1H-imidazol-5-ylmethyl]-4-(naphthalen-1-yl)-3-nitro-1H-pyrrole]
< 0.015	< 0.011	< 0.025	> 10	COc1ccc(CCn2cncc2Cn2cc(-c3cccc4ccccc34)c([N+](=O)[O-])c2)cc1 [Example 44, 1-[1-(4-methoxyphenethyl)-1H-imidazol-5-ylmethyl]-4-(naphthalen-1-yl)-3-nitro-1H-pyrrole]
< 0.006	< 0.007	> 0.05	> 10	O=[N+]([O-])c1cn(Cc2cncn2CCc2cccc3ccccc23)cc1-c1cccc2ccccc12 [Example 46, 1-[1-(naphthalen-1-ylethyl)-1H-imidazol-5-ylmethyl]-4-(naphthalen-1-yl)-3-nitro-1H-pyrrole]
< 0.029	< 0.015	< 0.0125	> 10	CCOCCCn1cncc1Cn1cc(-c2cccc3ccccc23)c([N+](=O)[O-])c1 [Example 47, 1-[1-(3-ethoxypropyl)-1H-imidazol-5-ylmethyl]-4-(naphthalen-1-yl)-3-nitro-1H-pyrrole]
